Test results published in ChEMBL document CHEMBL5370646, “Synthesis and Conformational Analysis of FR901464-Based RNA Splicing Modulators and Their Synergism in Drug-Resistant Cancers” (J Med Chem, 2023).

Key:
A549 = assay: Growth inhibition of human A549 cells assessed as reduction in cell viability incubated for 72 hrs; assay type: functional
DMS-114 [1] = assay: Growth inhibition of human DMS-114 cells assessed as reduction in cell viability incubated for 72 hrs; assay type: functional
DMS-114 [2] = assay: Synergistic antiproliferative activity against human DMS-114 cells assessed as combination index at 1 nM incubated for 72 hrs in presence of 6 uM venetoclax by WST-1 assay; assay type: functional
DMS-114 [3] = assay: Synergistic antiproliferative activity against human DMS-114 cells assessed as combination index at 2 nM incubated for 72 hrs in presence of 2.4 uM venetoclax by WST-1 assay; assay type: functional
DMS-114 [4] = assay: Synergistic antiproliferative activity against human DMS-114 cells assessed as combination index at 2 nM incubated for 72 hrs in presence of 6 uM venetoclax by WST-1 assay; assay type: functional
DMS-53 [5] = assay: Synergistic antiproliferative activity against human DMS-53 cells assessed as combination index at 0.5 nM incubated for 72 hrs in presence of 25 uM venetoclax by WST-1 assay; assay type: functional
DMS-53 [6] = assay: Synergistic antiproliferative activity against human DMS-53 cells assessed as combination index at 0.5 nM incubated for 72 hrs in presence of 50 uM venetoclax by WST-1 assay; assay type: functional
DMS-53 [7] = assay: Synergistic antiproliferative activity against human DMS-53 cells assessed as combination index at 0.5 nM incubated for 72 hrs in presence of […] venetoclax by WST-1 assay; assay type: functional
DMS-53 [8] = assay: Synergistic antiproliferative activity against human DMS-53 cells assessed as combination index at 0.5 nM incubated for 72 hrs in presence of […] venetoclax by WST-1 assay; assay type: functional
DMS-53 [9] = assay: Synergistic antiproliferative activity against human DMS-53 cells assessed as combination index at 0.5 nM incubated for 72 hrs in presence of […] venetoclax by WST-1 assay; assay type: functional
DMS-53 [10] = assay: Synergistic antiproliferative activity against human DMS-53 cells assessed as combination index at 1 nM incubated for 72 hrs in presence of 25 uM venetoclax by WST-1 assay; assay type: functional
DMS-53 [11] = assay: Synergistic antiproliferative activity against human DMS-53 cells assessed as combination index at 1 nM incubated for 72 hrs in presence of 50 uM venetoclax by WST-1 assay; assay type: functional
DMS-53 [12] = assay: Synergistic antiproliferative activity against human DMS-53 cells assessed as combination index at 1.5 nM incubated for 72 hrs in presence of 25 uM venetoclax by WST-1 assay; assay type: functional
DMS-53 [13] = assay: Synergistic antiproliferative activity against human DMS-53 cells assessed as combination index at 1.5 nM incubated for 72 hrs in presence of 50 uM venetoclax by WST-1 assay; assay type: functional
DMS-53 [14] = assay: Synergistic antiproliferative activity against human DMS-53 cells assessed as combination index at 1.5 nM incubated for 72 hrs in presence of […] venetoclax by WST-1 assay; assay type: functional
DMS-53 [15] = assay: Synergistic antiproliferative activity against human DMS-53 cells assessed as combination index at 2 nM incubated for 72 hrs in presence of […] venetoclax by WST-1 assay; assay type: functional
[16] = Synergistic antiproliferative activity against human Osimertinib-resistant HCC827AR cell assessed as combination index at 1 nM incubated for 72 hrs in presence of 0.25 uM osimertinib by WST-1 assay; assay type: functional
[17] = Synergistic antiproliferative activity against human Osimertinib-resistant HCC827AR cell assessed as combination index at 1 nM incubated for 72 hrs in presence of 2 uM osimertinib by WST-1 assay; assay type: functional
[18] = Synergistic antiproliferative activity against human Osimertinib-resistant HCC827AR cell assessed as combination index at 1 nM incubated for 72 hrs in presence of 4 uM osimertinib by WST-1 assay; assay type: functional
[19] = Synergistic antiproliferative activity against human Osimertinib-resistant HCC827AR cell assessed as combination index at 1.5 nM incubated for 72 hrs in presence of 0.25 uM osimertinib by WST-1 assay; assay type: functional
[20] = Synergistic antiproliferative activity against human Osimertinib-resistant HCC827AR cell assessed as combination index at 1.5 nM incubated for 72 hrs in presence of 1 uM osimertinib by WST-1 assay; assay type: functional
[21] = Synergistic antiproliferative activity against human Osimertinib-resistant HCC827AR cell assessed as combination index at 1.5 nM incubated for 72 hrs in presence of 2 uM osimertinib by WST-1 assay; assay type: functional
[22] = Synergistic antiproliferative activity against human Osimertinib-resistant HCC827AR cell assessed as combination index at 2 nM incubated for 72 hrs in presence of 0.50 uM osimertinib by WST-1 assay; assay type: functional
[23] = Synergistic antiproliferative activity against human Osimertinib-resistant HCC827AR cell assessed as combination index at 2 nM incubated for 72 hrs in presence of 2 uM osimertinib by WST-1 assay; assay type: functional
[24] = Synergistic antiproliferative activity against human Osimertinib-resistant HCC827AR cell assessed as combination index at 2 nM incubated for 72 hrs in presence of 4 uM osimertinib by WST-1 assay; assay type: functional
[25] = Synergistic antiproliferative activity against human Osimertinib-resistant HCC827AR cell assessed as combination index at 2.5 nM incubated for 72 hrs in presence of 0.25 uM osimertinib by WST-1 assay; assay type: functional
[26] = Synergistic antiproliferative activity against human Osimertinib-resistant HCC827AR cell assessed as combination index at 2.5 nM incubated for 72 hrs in presence of 0.50 uM osimertinib by WST-1 assay; assay type: functional
[27] = Synergistic antiproliferative activity against human Osimertinib-resistant HCC827AR cell assessed as combination index at 2.5 nM incubated for 72 hrs in presence of 1 uM osimertinib by WST-1 assay; assay type: functional
[28] = Synergistic antiproliferative activity against human Osimertinib-resistant HCC827AR cell assessed as combination index at 2.5 nM incubated for 72 hrs in presence of 2 uM osimertinib by WST-1 assay; assay type: functional
[29] = Metabolic stability in CD1 mouse plasma measured after 48 hrs by LC-MS analysis; assay type: ADME, cell-free

## COCO[C@@H](C)/C=C\C(=O)N[C@@H]1C[C@H](C)[C@H](C/C=C(C)/C=C/[C@H]2OC(C)(C)C[C@@]3(CO3)[C@@H]2O)O[C@@H]1C
A549
  GI50: 3.9 nM
DMS-114 [1]
  GI50: 2.3 nM
DMS-114 [2]
  CI: 1.46
DMS-114 [3]
  CI: 0.69
DMS-114 [4]
  CI: 0.67
DMS-53 [5]
  CI: 1.33
DMS-53 [6]
  CI: 1.26
DMS-53 [7]
  CI: 1.35
DMS-53 [8]
  CI: 1.52
DMS-53 [9]
  CI: 1.6
DMS-53 [10]
  CI: 1.04
DMS-53 [11]
  CI: 0.8
DMS-53 [12]
  CI: 0.7
DMS-53 [13]
  CI: 0.63
DMS-53 [14]
  CI: 0.67
DMS-53 [15]
  CI: 0.42
[16]
  CI: 1.06
[17]
  CI: 1.37
[18]
  CI: 0.93
[19]
  CI: 0.92
[20]
  CI: 1.5
[21]
  CI: 1.34
[22]
  CI: 1.08
[23]
  CI: 1.17
[24]
  CI: 0.87
[25]
  CI: 0.83
[26]
  CI: 0.99
[27]
  CI: 1.04
[28]
  CI: 0.99
[29]
  Stability: Stable
